Assay results published in the NIST ThermoML archive (doi:10.1021/acs.jced.8b00201).

Assay: xn = mol fraction of the nth substance listed
Settings: 100 kPa, Liquid; for viscosity: Concentric cylinders viscometry; for mass density: Vibrating tube method

O=C1CCCCC1 [cyclohexanone] + CCCCCCO
Settings	mass density [kg/m3]	viscosity [mPa·s]
293.15 K, x1 = 0.0818	827.6	4.66
293.15 K, x1 = 0.1594	836.2	4.06
293.15 K, x1 = 0.2401	845.5	3.55
293.15 K, x1 = 0.3467	858.2	2.97
293.15 K, x1 = 0.4439	870.2	2.55
293.15 K, x1 = 0.564	885.7	2.18
293.15 K, x1 = 0.6501	897.3	2.02
293.15 K, x1 = 0.7381	909.5	1.97
293.15 K, x1 = 0.8512	925.9	2
293.15 K, x1 = 0.9426	939.8	2.13
293.15 K, x1 = 1	948.8	2.3
298.15 K, x1 = 0.0818	823.8	4.03
298.15 K, x1 = 0.1594	832.2	3.54
298.15 K, x1 = 0.2401	841.3	3.12
298.15 K, x1 = 0.3467	853.7	2.63
298.15 K, x1 = 0.4439	865.5	2.3
298.15 K, x1 = 0.564	880.7	1.98
298.15 K, x1 = 0.6501	892.1	1.86
298.15 K, x1 = 0.7381	904.2	1.81
298.15 K, x1 = 0.8512	920.5	1.84
298.15 K, x1 = 0.9426	934.7	1.95
298.15 K, x1 = 1	943.1	2.09
303.15 K, x1 = 0.0818	820	3.47
303.15 K, x1 = 0.1594	828.3	3.07
303.15 K, x1 = 0.2401	837.2	2.72
303.15 K, x1 = 0.3467	849.5	2.33
303.15 K, x1 = 0.4439	861.1	2.05
303.15 K, x1 = 0.564	876.2	1.8
303.15 K, x1 = 0.6501	887.5	1.71
303.15 K, x1 = 0.7381	899.5	1.67
303.15 K, x1 = 0.8512	915.6	1.7
303.15 K, x1 = 0.9426	929.8	1.79
303.15 K, x1 = 1	938.2	1.91
308.15 K, x1 = 0.0818	816.3	3.04
308.15 K, x1 = 0.1594	824.4	2.71
308.15 K, x1 = 0.2401	833.2	2.41
308.15 K, x1 = 0.3467	845.3	2.09
308.15 K, x1 = 0.4439	856.8	1.87
308.15 K, x1 = 0.564	871.8	1.67
308.15 K, x1 = 0.6501	883	1.59
308.15 K, x1 = 0.7381	894.9	1.55
308.15 K, x1 = 0.8512	911	1.58
308.15 K, x1 = 0.9426	925.1	1.64
308.15 K, x1 = 1	933.5	1.75
313.15 K, x1 = 0.0818	812.4	2.66
313.15 K, x1 = 0.1594	820.5	2.39
313.15 K, x1 = 0.2401	829.2	2.14
313.15 K, x1 = 0.3467	841.1	1.86
313.15 K, x1 = 0.4439	852.5	1.68
313.15 K, x1 = 0.564	867.3	1.51
313.15 K, x1 = 0.6501	878.5	1.45
313.15 K, x1 = 0.7381	890.3	1.42
313.15 K, x1 = 0.8512	906.3	1.45
313.15 K, x1 = 0.9426	920.4	1.51
313.15 K, x1 = 1	928.8	1.6
318.15 K, x1 = 0.0818	808.7	2.33
318.15 K, x1 = 0.1594	816.7	2.1
318.15 K, x1 = 0.2401	825.3	1.9
318.15 K, x1 = 0.3467	837.1	1.68
318.15 K, x1 = 0.4439	848.4	1.52
318.15 K, x1 = 0.564	863.1	1.38
318.15 K, x1 = 0.6501	874.2	1.33
318.15 K, x1 = 0.7381	886	1.31
318.15 K, x1 = 0.8512	901.9	1.33
318.15 K, x1 = 0.9426	916	1.39
318.15 K, x1 = 1	924.4	1.46
323.15 K, x1 = 0.0818	804.9	2.05
323.15 K, x1 = 0.1594	812.8	1.86
323.15 K, x1 = 0.2401	821.4	1.7
323.15 K, x1 = 0.3467	833.2	1.51
323.15 K, x1 = 0.4439	844.5	1.39
323.15 K, x1 = 0.564	859.2	1.28
323.15 K, x1 = 0.6501	870.3	1.23
323.15 K, x1 = 0.7381	882.2	1.22
323.15 K, x1 = 0.8512	898.1	1.23
323.15 K, x1 = 0.9426	912.2	1.27
323.15 K, x1 = 1	920.7	1.34
